Earlier results on 1 molecule are cited in patent US11134689B2, “Natural volatile plant oils to repel arthropods” (Shepard Farms, LLC, priority 2011, dated 2021).

In this data set the test system is fruit fly (Ceratitis capitata). The note with it: in vivo.

For the molecule `CC12CCC(CC1)C(C)(C)O2` [1,8-cineole], the insecticidal activity entry is “high insecticidal activity”.
